Consider ten compounds from US6462047B1, “Carboline derivatives as cGMP phosphodiesterase inhibitors” (ICOS Corporation, priority 2001, dated 2002).

The subject of experiment [1] is conscious spontaneously hypertensive rats (SHRs). The experiment in a line: Hypotensive effects in conscious spontaneously hypertensive rats. To be noted: orally 5 mg/kg in 5% DMF and 95% olive oil; AUC from 0 to 5 hours of the fall in blood pressure. The format is in vivo, rat. As for the experimental part: The hypotensive effects of compounds according to the invention as identified in Table 2 were studied in conscious spontaneously hypertensive rats (SHRs). The compounds were administered orally at a dose of 5 mg/kg in a mixture of 5% DMF and 95% olive oil. Blood pressure was measured from a catheter inserted in the carotid artery and recorded for five hours after administration. The results are expressed as Area Under the Curve (AUC) from 0 to 5 hours, mm Hg.hours of the fall in blood pressure over time.

In another experiment the target is human recombinant PDE5 (Homo sapiens, UniProt O76074). The experiment in a line: Inhibitory effect on cGMP-PDE (one-step assay adapted from Wells et al.). The format is biochemical. Conditions: human recombinant PDE5, 0.15 μM 8-[H3]-cGMP, 30 minutes incubation, 2% DMSO. The protocol: cGMP-PDE activity of compounds of the present invention was measured using a one-step assay adapted from Wells et al., Biochim. Biophys. Acta, 384, 430 (1975). The reaction medium contained 50 mM Tris-HCl, pH 7.5, 5 mM magnesium acetate, 250 μg/ml 5′-Nucleotidase, 1 mM EGTA, and 0.15 μM 8-[H^3]-cGMP. The enzyme used was a human recombinant PDE5 (ICOS Corp., Bothell, Wash.).
Compounds of the invention were dissolved in DMSO finally present at 2% in the assay.

For experiment [2], the system named is Rat aortic smooth muscle cells (RSMC). The experiment in a line: cGMP level measurements in ANF-stimulated rat aortic smooth muscle cells. Conditions: 30 minutes at 37° C. with compound, then ANF (100 nM) for 10 minutes, dose giving half of the stimulation at saturating concentrations. In kind it is cell-based. As for the experimental part:
Rat aortic smooth muscle cells (RSMC), prepared according to Chamley et al., Cell Tissue Res., 177, 503-522 (1977), were used between the 10th and 25th passage at confluence in 24-well culture dishes. Culture media was aspirated and replaced with PBS (0.5 ml) containing the compound tested at the appropriate concentration. After 30 minutes at 37° C., particulates guanylate cyclase was stimulated by addition of ANF (100 nM) for 10 minutes. At the end of incubation, the medium was withdrawn, and two extractions were performed by addition of 65% ethanol (0.25 ml). The two ethanolic extracts were pooled and evaporated until dryness, using a Speed-vac system. cGMP was measured after acetylation by scintillation proximity immunoassay (AMERSHAM). The EC50 values are expressed as the dose-giving half of the stimulation at saturating concentrations.

pEC50, pIC50: −log10 of the molar value.

As for `CN(C)Cc1ccc(/C=C/C(=O)N2CCc3c([nH]c4ccccc34)[C@H]2c2ccc3c(c2)CCO3)s1` [Example 14, (E)-1R-1-[1-(2,3-Dihydrobenzofuran-5-yl)-2,3,4,9-tetrahydro-β-carboline-2-yl]-3-(5-dimethylaminomethyl-thiophen-2-yl)-propene-1-one], in experiment [1], the “SHR AUC PO” value is recorded as 107 mm Hg.h. For the same compound, the pIC50 at human recombinant PDE5 is 8.30. For the same compound, the pEC50 in experiment [2] was 5.82.
The corresponding values for `O=C(/C=C/c1ccc(CN2CCCC2)s1)N1CCc2c([nH]c3ccccc23)[C@H]1c1ccc2c(c1)CCO2` [Example 15, (E)-1R-1-[1-(2,3-Dihydrobenzofuran-5-yl)-2,3,4,9-tetrahydro-β-carboline-2-yl]-3-(5-pyrrolidin-1-ylmethyl-thiophen-2-yl)-propene-1-one] are 96 mm Hg.h, 7.40 and 5.82.
Consider `CN1CCN(Cc2ccc(/C=C/C(=O)N3CCc4c([nH]c5ccccc45)[C@H]3c3ccc4c(c3)CCO4)s2)CC1` [Example 16, (E)-1R-1-[1-(2,3-Dihydrobenzofuran-5-yl)-2,3,4,9-tetrahydro-β-carboline-2-yl]-3-(4-methyl-piperazin-1-ylmethyl-thiophen-2-yl)-propene-1-one], for which, at human recombinant PDE5, the pIC50 was 8.40. In addition, the pEC50 in experiment [2] was 5.46.
In the case of `CN(C)Cc1ccc(/C=C/C(=O)N2CCc3c([nH]c4ccccc34)[C@H]2c2ccc3c(c2)CCO3)o1` [Example 17, (E)-1R-1-[1-(2,3-Dihydrobenzofuran-5-yl)-2,3,4,9-tetrahydro-β-carboline-2-yl]-3-(5-dimethylaminomethyl-furan-2-yl)-propene-1-one], the “SHR AUC PO” value in experiment [1] was determined as 40 mm Hg.h. The pIC50 on human recombinant PDE5 was 7.70. Also, the pEC50 in experiment [2] is over 6.00.
For the compound `CN(C)Cc1occc1/C=C/C(=O)N1CCc2c([nH]c3ccccc23)[C@H]1c1ccc2c(c1)CCO2` [Example 19, (E)-1R-1-[1-(2,3-Dihydrobenzofuran-5-yl)-2,3,4,9-tetrahydro-β-carboline-2-yl]-3-(2-dimethylaminomethyl-furan-3-yl)-propene-1-one], at human recombinant PDE5, the pIC50 was 7.40. In addition, the pEC50 in experiment [2] is 5.40.
On to `O=C(/C=C/c1cncnc1)N1CCc2c([nH]c3ccccc23)[C@H]1c1ccc2c(c1)CCO2` [Example 20, (E)-1R-1-[1-(2,3-Dihydrobenzofuran-5-yl)-2,3,4,9-tetrahydro-β-carboline-2-yl]-3-(pyrimidin-5-yl)-propene-1-one], for which, in experiment [1], the “SHR AUC PO” value was 48 mm Hg.h. Also, the negative logarithm of the IC50 (pIC50) at human recombinant PDE5 was 7.40. The pEC50 in experiment [2] is over 6.00.
The corresponding values for `Nc1ncc(/C=C/C(=O)N2CCc3c([nH]c4ccccc34)[C@H]2c2ccc3c(c2)CCO3)cn1` [Example 21, (E)-1R-1-[1-(2,3-Dihydrobenzofuran-5-yl)-2,3,4,9-tetrahydro-β-carboline-2-yl]-3-(2-amino-5-pyrimidin-5-yl)-propene-1-one] are 124 mm Hg.h, 8.15 and over 6.00.
The corresponding values for `O=C(/C=C/c1cnc(N2CCCC2)nc1)N1CCc2c([nH]c3ccccc23)[C@H]1c1ccc2c(c1)CCO2` [Example 22] are 9 mm Hg.h, 8.22 and over 6.00.
The like results for `CN1CCN(c2ncc(/C=C/C(=O)N3CCc4c([nH]c5ccccc45)[C@H]3c3ccc4c(c3)CCO4)cn2)CC1` [Example 23] were, in that order, 108 mm Hg.h, 8.10 and over 6.00.
Take `O=C(/C=C/c1ccc([N+](=O)[O-])s1)N1CCc2c([nH]c3ccccc23)[C@H]1c1ccc2c(c1)CCO2` [Example 26, (E)-1R-1-[1-(2,3-Dihydrobenzofuran-5-yl)-2,3,4,9-tetrahydro-β-carboline-2-yl]-3-(5-nitro-thiophen-2-yl)-propene-1-one]: the pIC50 on human recombinant PDE5 was 7.40. The pEC50 in experiment [2] is over 6.00.
